One experiment concerns the target Carbonic anhydrase 1 (Homo sapiens, UniProt P00915). Briefly: Inhibition of human carbonic anhydrase 1 by stopped-flow CO2 hydrase assay.
The target of the next experiment is Carbonic anhydrase 2 (Homo sapiens, UniProt P00918). In words: Inhibition of human carbonic anhydrase 2 by stopped-flow CO2 hydrase assay.
The target of another experiment is Carbonic anhydrase 9 (Homo sapiens, UniProt Q16790). Briefly: Inhibition of human carbonic anhydrase 9 by stopped-flow CO2 hydrase assay.

Chain of Carbonic anhydrase 1 (P00915 whole entry): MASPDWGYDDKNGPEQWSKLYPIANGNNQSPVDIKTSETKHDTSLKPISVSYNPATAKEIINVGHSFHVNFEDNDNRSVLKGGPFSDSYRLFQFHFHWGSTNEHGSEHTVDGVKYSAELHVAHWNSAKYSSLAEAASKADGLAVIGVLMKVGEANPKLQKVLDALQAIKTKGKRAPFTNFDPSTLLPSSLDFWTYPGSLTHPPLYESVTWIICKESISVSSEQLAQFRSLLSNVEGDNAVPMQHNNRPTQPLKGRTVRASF

For `CCCN(CCC)S(=O)(=O)c1ccc(C(=O)Nc2ccncc2)cc1`, the inhibition constant Ki (in general, a measure of affinity in units of concentration, obtained from inhibition or displacement) on Carbonic anhydrase 1 was more than 10 µM; on Carbonic anhydrase 2, more than 10 µM; at Carbonic anhydrase 9, 2.04 µM.

Regarding `CCCN(CCC)S(=O)(=O)c1ccc(C(=O)NCc2ccccc2)cc1`, the Ki was more than 10 µM on Carbonic anhydrase 1, more than 10 µM on Carbonic anhydrase 2 and 0.0206 µM at Carbonic anhydrase 9.

As for `CCCN(CCC)S(=O)(=O)c1ccc(C(=O)NCCCN2CCOCC2)cc1`, the Ki at Carbonic anhydrase 1 is more than 10 µM; on Carbonic anhydrase 2 it was more than 10 µM; at Carbonic anhydrase 9, 0.213 µM.

In the case of `CCCN(CCC)S(=O)(=O)c1ccc(C(=O)NC2CCC(C)CC2)cc1` (centres undefined), the values for the inhibitory constant (Ki) at Carbonic anhydrase 1, on Carbonic anhydrase 2 and on Carbonic anhydrase 9 were more than 10 µM, more than 10 µM and 2.02 µM, respectively.

Regarding `CCCN(CCC)S(=O)(=O)c1ccc(C(=O)NC2CCCC(C)C2)cc1` (centres undefined), the results for the Ki at Carbonic anhydrase 1, on Carbonic anhydrase 2 and at Carbonic anhydrase 9 were more than 10 µM, more than 10 µM and 0.188 µM, respectively.

Take `CCCN(CCC)S(=O)(=O)c1ccc(C(=O)NCC)cc1`: the Ki at Carbonic anhydrase 1 and at Carbonic anhydrase 2 was more than 10 µM in each case.

Regarding `CCCN(CCC)S(=O)(=O)c1ccc(C(=O)Nc2ccccc2Cl)cc1`, the Ki on Carbonic anhydrase 1 was more than 10 µM; at Carbonic anhydrase 2 it was more than 10 µM; on Carbonic anhydrase 9, 0.0236 µM.

Regarding `CCCN(CCC)S(=O)(=O)c1ccc(C(=O)Nc2ccccc2C)cc1`, the figures for the Ki on Carbonic anhydrase 1, on Carbonic anhydrase 2 and at Carbonic anhydrase 9 were more than 10 µM, more than 10 µM and 0.0613 µM, respectively.

Regarding `CCCN(CCC)S(=O)(=O)c1ccc(C(=O)Nc2ccccn2)cc1`, the results for the Ki at Carbonic anhydrase 2 and on Carbonic anhydrase 9 were more than 10 µM and 0.199 µM, respectively.

Take `CCCN(CCC)S(=O)(=O)c1ccc(C(=O)Nc2ccc([N+](=O)[O-])cc2)cc1`: the Ki was more than 10 µM at Carbonic anhydrase 1, more than 10 µM at Carbonic anhydrase 2 and 0.246 µM on Carbonic anhydrase 9.

`CCCN(CCC)S(=O)(=O)c1ccc(C(=O)NCCN(CC)CC)cc1`: the Ki on Carbonic anhydrase 1 was more than 10 µM; at Carbonic anhydrase 2, more than 10 µM; on Carbonic anhydrase 9, 0.11 µM.

As to `CCCN(CCC)S(=O)(=O)c1ccc(C(=O)NCCN2CCCCC2)cc1`, the Ki is more than 10 µM on Carbonic anhydrase 1, more than 10 µM at Carbonic anhydrase 2 and 1.26 µM at Carbonic anhydrase 9.

The values above are taken from ChEMBL document CHEMBL3585297, “New amide derivatives of Probenecid as selective inhibitors of carbonic anhydrase IX and XII: biological evaluation and molecular modelling studies” (Bioorg Med Chem, 2015).
